{
  "source": "patent US4065354A",
  "about": "“Lysozyme conjugates for enzyme immunoassays” (priority 1975, dated 1977)",
  "key": {"[1]": {"tested_on": "amphetamine antibody", "test": "amphetamine lysozyme conjugate enzyme immunoassay, cross-reactivity", "type": "binding", "conditions": "related to 1μg/ml amphetamine; 50μl of urine", "description": "The next drug to be considered is amphetamine. Again, the same procedure is employed for lysozyme as for the prior assays, except that 50μl of urine is employed. The relative reactivity is related to 1μg/ml amphetamine."}, "[2]": {"tested_on": "thyroxine antibodies", "test": "activity of thyroxine-lysozyme conjugate (Example 17), inhibition by antibody, return by thyroxine", "type": "biochemical"}, "[3]": {"tested_on": "morphine antibodies", "test": "homogeneous enzyme immunoassay with morphine conjugate to lysozyme, cross-reactivity"}, "[4]": {"tested_on": "morphine antibodies", "test": "inhibition of Example 2 morphine-lysozyme conjugate by antibody and recovery by morphine", "type": "biochemical"}, "[5]": {"tested_on": "methadone antibody", "test": "methadone lysozyme conjugate enzyme immunoassay (sensitivity, cross-reactivity)", "conditions": "relative to methadone at 0.5μg/ml; ratio of concentrations giving the same optical density reading"}, "[6]": {"conditions": "compound concentration 0.3 μg/ml"}, "[7]": {"conditions": "compound concentration 300 μg/ml"}},
  "data": [
    {"compound": "CC(N)Cc1ccccc1", "note": "(stereo not drawn) [Amphetamine]", "values": [
      {"measurement": "Relative Reactivity", "setting": "[1]", "value": 1}
    ]},
    {"compound": "17: thyroxine methyl ester diglycolic acid derivative conjugated to lysozyme [Example 17]", "values": [
      {"measurement": "inhibition by thyroxine antibodies", "setting": "[2]", "value": "could be inhibited by thyroxine antibodies"},
      {"measurement": "activity after addition of thyroxine", "setting": "[2]; antibody-inhibited conjugate", "value": "activity returned by the addition of thyroxine"},
      {"measurement": "enzyme activity of the conjugate", "setting": "[2]; product after dialysis and centrifugation", "value": "active"}
    ]},
    {"compound": "COc1ccc2c3c1O[C@H]1[C@@H](O)C=C[C@H]4[C@@H](C2)N(C)CC[C@@]341", "note": "[Codeine]", "values": [
      {"measurement": "Percent max. rate", "setting": "[3]; [6]", "value": 7, "unit": "%"},
      {"measurement": "Percent max. rate", "setting": "[3]; compound concentration 3 μg/ml", "value": 90, "unit": "%"}
    ]},
    {"compound": "CC(C)(N)Cc1ccccc1", "note": "[phentermine]", "values": [
      {"measurement": "Relative Reactivity", "setting": "[1]", "value": 0.62}
    ]},
    {"compound": "COC(=O)[C@H]1[C@@H](OC(=O)c2ccccc2)C[C@@H]2CC[C@H]1N2C", "note": "[Cocaine]", "values": [
      {"measurement": "Percent max. rate", "setting": "[3]; [7]", "value": 2, "unit": "%"}
    ]},
    {"compound": "CC(N)C(O)c1ccccc1", "note": "(stereo not drawn) [Phenylpropanolamine]", "values": [
      {"measurement": "Relative Reactivity", "setting": "[1]", "value": 0.33}
    ]},
    {"compound": "2: 0^3 -methoxyimidoylmethylmorphine conjugated to lysozyme [Example 2]", "values": [
      {"measurement": "recovery of enzyme activity upon addition of aqueous morphine", "setting": "[4]; antibody-inhibited conjugate", "value": "full recovery of activity"},
      {"measurement": "inhibition of conjugate enzyme activity by morphine antibodies", "setting": "[4]; dialysate of Example 2", "value": "could be inhibited by morphine antibodies"}
    ]},
    {"compound": "CC(CCc1ccccc1)NC(C)C(O)c1ccc(O)cc1", "note": "(stereo not drawn) [Nylidrin]", "values": [
      {"measurement": "Relative Reactivity", "setting": "[1]", "value": 0.27}
    ]},
    {"compound": "Hydromorphine", "values": [
      {"measurement": "Percent max. rate", "setting": "[3]; [6]", "value": 6, "unit": "%"},
      {"measurement": "Percent max. rate", "setting": "[3]; compound concentration 3 μg/ml", "value": 55, "unit": "%"}
    ]},
    {"compound": "COc1ccc2c(c1)[C@]13CCCC[C@@H]1[C@H](C2)N(C)CC3", "note": "[Dextromethorphan]", "values": [
      {"measurement": "Relative Reactivity", "setting": "[5]", "value": 0.0042}
    ]},
    {"compound": "CN[C@@H](C)Cc1ccccc1", "note": "[Methamphetamine]", "values": [
      {"measurement": "Relative Reactivity", "setting": "[1]", "value": 1.1}
    ]},
    {"compound": "CN(C)CCCN1c2ccccc2Sc2ccc(Cl)cc21", "note": "[Thorazine]", "values": [
      {"measurement": "Percent max. rate", "setting": "[3]; compound concentration 35 μg/ml (9.9 × 10^-5 M)", "value": 6, "unit": "%"}
    ]},
    {"compound": "NCCc1ccccc1", "note": "[Phenethylamine]", "values": [
      {"measurement": "Relative Reactivity", "setting": "[1]", "value": 0.2}
    ]},
    {"compound": "CNC(C)(C)Cc1ccccc1", "note": "[Mephentermine]", "values": [
      {"measurement": "Relative Reactivity", "setting": "[1]", "value": 0.62}
    ]},
    {"compound": "CCC1(c2ccccc2)C(=O)NC(=O)NC1=O", "note": "[Phenobarbital]", "values": [
      {"measurement": "Percent max. rate", "setting": "[3]; [7]", "value": 0, "unit": "%"}
    ]},
    {"compound": "CCC(=O)C(CC(C)N(C)C)(c1ccccc1)c1ccccc1", "note": "(stereo not drawn) [Methadone]", "values": [
      {"measurement": "Relative Reactivity", "setting": "[5]", "value": 1},
      {"measurement": "Percent max. rate", "setting": "[3]; compound concentration 30 μg/ml (8.7 × 10^-5 M)", "value": 1, "unit": "%"}
    ]},
    {"compound": "Morphine glucuronide", "values": [
      {"measurement": "Percent max. rate", "setting": "[3]; [6]", "value": 4, "unit": "%"},
      {"measurement": "Percent max. rate", "setting": "[3]; compound concentration 10 μg/ml (2.1 × 10^-5 M)", "value": 77, "unit": "%"}
    ]},
    {"compound": "CC(N)Cc1ccc(O)cc1", "note": "(stereo not drawn) [p-Hydroxyamphetamine]", "values": [
      {"measurement": "Relative Reactivity", "setting": "[1]", "value": 0.022}
    ]},
    {"compound": "CN(C)CCCN1c2ccccc2Sc2ccc(Cl)cc21", "note": "[Chlorpromazine]", "values": [
      {"measurement": "Relative Reactivity", "setting": "[5]", "value": 0.011}
    ]},
    {"compound": "CC(CN1c2ccccc2Sc2ccccc21)N(C)C", "note": "(stereo not drawn) [Phenergan]", "values": [
      {"measurement": "Relative Reactivity", "setting": "[5]", "value": 0.0125}
    ]},
    {"compound": "CN[C@@H](C)[C@H](O)c1ccccc1", "note": "[Ephedrine]", "values": [
      {"measurement": "Relative Reactivity", "setting": "[1]", "value": 0.22}
    ]},
    {"compound": "CNC(C)CC1CCCC1", "note": "(stereo not drawn) [Cyclopentamine]", "values": [
      {"measurement": "Relative Reactivity", "setting": "[1]", "value": 0.33}
    ]},
    {"compound": "CCC(=O)O[C@](Cc1ccccc1)(c1ccccc1)[C@H](C)CN(C)C", "note": "[Darvon]", "values": [
      {"measurement": "Percent max. rate", "setting": "[3]; [7]", "value": 4, "unit": "%"}
    ]},
    {"compound": "CC(COc1ccccc1)NC(C)C(O)c1ccc(O)cc1", "note": "(stereo not drawn) [Isoxsuprine]", "values": [
      {"measurement": "Relative Reactivity", "setting": "[1]", "value": 0.2}
    ]},
    {"compound": "CCC(=O)O[C@](Cc1ccccc1)(c1ccccc1)[C@H](C)CN(C)C", "note": "[Dextropropoxyphene]", "values": [
      {"measurement": "Relative Reactivity", "setting": "[5]", "value": 0.00089}
    ]},
    {"compound": "CC(C)=CCN1CCC2(C)c3cc(O)ccc3CC1C2C", "note": "(stereo not drawn) [Pentazocine]", "values": [
      {"measurement": "Percent max. rate", "setting": "[3]; [7]", "value": 3, "unit": "%"}
    ]},
    {"compound": "CNC(C)CC1CCCCC1", "note": "(stereo not drawn) [Propylhexedrine]", "values": [
      {"measurement": "Relative Reactivity", "setting": "[1]", "value": 0.05}
    ]},
    {"compound": "CN1CC[C@]23c4c5ccc(O)c4O[C@H]2[C@@H](O)C=C[C@H]3[C@H]1C5", "note": "[Morphine]", "values": [
      {"measurement": "Percent max. rate", "setting": "[3]; [6]", "value": 5, "unit": "%"},
      {"measurement": "Percent max. rate", "setting": "[3]; compound concentration 3 μg/ml", "value": 67, "unit": "%"}
    ]}
  ]
}
